According to article PMC4382465 (The Journal of antibiotics, 2014):
In brackets after ≈: the same amount, converted by molar mass.

Tests used:
[1] = test system: M. tuberculosis H37Rv RFPr; test: MIC, broth dilution; assay type: cell-based; conditions: Mycobacterium tuberculosis
[2] = test system: M. tuberculosis H37Rv INHr; test: MIC, broth dilution; assay type: cell-based; conditions: Mycobacterium tuberculosis

Row | Structure (SMILES) | MIC [1] [µg/mL] | MIC [2] [µg/mL]
1 | CO[C@H]1/C=C/O[C@@]2(C)Oc3c(C)c(O)c4c(O)c(c(/C=N/N5CCN(C)CC5)c(O)c4c3C2=O)NC(=O)/C(C)=C\C=C\[C@H](C)[C@H](O)[C@@H](C)[C@@H](O)[C@@H](C)[C@H](OC(C)=O)[C@@H]1C [Rifampicin (RFP), Rifampicin] | > 4 | –
2 | COC1C(C(OC2OC(C(=O)NC3CCCCNC3=O)=CC(O)C2O)C(N)=O)OC(n2ccc(=O)[nH]c2=O)C1OC (stereo not drawn) [UT-01320 (3), 6-{Carbamoyl-[5-(2,4-dioxo-3,4-dihydro-2H-pyrimidin-1-yl)-3,4-dimethoxy-tetrahydro-furan-2-yl]-methoxy}-4,5-dihydroxy-5,6-dihydro-4H-pyran-2-carboxylic acid (2-oxo-azepan-3-yl)-amide] | 2.45 (≈ 4.2 µM) | 2.5 (≈ 4.28 µM)
